Data as given in ChEMBL document CHEMBL1201862, “PubChem BioAssay data set” (2004).
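All cell lines were grown in 96-well plates and treated with compound for 48 hours. At the GI50, growth is halved.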 The source made the active and inactive calls. Cut-off read from the data, not from the text of the source: active = GI50 up to about 1.1 µM and inactive = higher.

Columns and labels:
Assay in all cases: NCI-60 cell line screen, 48 h
SK-MEL-2 = tested on: SK-MEL-2
SN12C = tested on: SN12C
KM12 = tested on: KM12
CCRF-CEM = tested on: CCRF-CEM
RXF 393 = tested on: RXF 393
786-0 = tested on: 786-0
EKVX = tested on: EKVX
HL-60 = tested on: HL-60
NCI-H226 = tested on: NCI-H226
MDA-N = tested on: MDA-N
K562 = tested on: K562
A498 = tested on: A498
DU-145 = tested on: DU-145
OVCAR-5 = tested on: OVCAR-5
HOP-62 = tested on: HOP-62
UACC-257 = tested on: UACC-257
MOLT-4 = tested on: MOLT-4
NCI-H23 = tested on: NCI-H23
SF-268 = tested on: SF-268
SW-620 = tested on: SW-620
MDA-MB-231 = tested on: MDA-MB-231
COLO 205 = tested on: COLO 205
BT-549 = tested on: BT-549
TK-10 = tested on: TK-10
LOX IMVI = tested on: LOX IMVI
U-251 = tested on: U-251
NCI/ADR-RES = tested on: NCI/ADR-RES
MDA-MB-435 = tested on: MDA-MB-435
CAKI-1 = tested on: CAKI-1
OVCAR-3 = tested on: OVCAR-3
HCT-116 = tested on: HCT-116
SK-OV-3 = tested on: SK-OV-3
NCI-H522 = tested on: NCI-H522
IGROV-1 = tested on: IGROV-1
NCI-H460 = tested on: NCI-H460
SNB-19 = tested on: SNB-19
Hs-578T = tested on: Hs-578T
Malme-3M = tested on: Malme-3M
T47D = tested on: T47D
SK-MEL-28 = tested on: SK-MEL-28
UACC-62 = tested on: UACC-62
SK-MEL-5 = tested on: SK-MEL-5
SF-295 = tested on: SF-295
ACHN = tested on: ACHN
SNB-75 = tested on: SNB-75
OVCAR-8 = tested on: OVCAR-8
HCT-15 = tested on: HCT-15
HT-29 = tested on: HT-29
UO-31 = tested on: UO-31
SF-539 = tested on: SF-539
A549 = tested on: A549
HOP-92 = tested on: HOP-92
PC-3 = tested on: PC-3
RPMI-8226 = tested on: RPMI-8226
M14 = tested on: M14
OVCAR-4 = tested on: OVCAR-4
SR = tested on: SR
MCF7 = tested on: MCF7
HCC 2998 = tested on: HCC 2998

## CC1=NNC(=O)C1C1C=C(c2c[nH]c3ccccc23)OC1=O (stereo unspecified)
SK-MEL-2
  GI50: > 100 µM (inactive)
SN12C
  GI50: > 100 µM (inactive)
KM12
  GI50: 21.7 µM (inactive)
CCRF-CEM
  GI50: 59.6 µM (inactive)
RXF 393
  GI50: > 100 µM (inactive)
786-0
  GI50: > 100 µM (inactive)
EKVX
  GI50: > 100 µM (inactive)
HL-60
  GI50: > 100 µM (inactive)
NCI-H226
  GI50: > 100 µM (inactive)
MDA-N
  GI50: > 100 µM (inactive)
K562
  GI50: 62.4 µM (inactive)
A498
  GI50: > 100 µM (inactive)
DU-145
  GI50: > 100 µM (inactive)
OVCAR-5
  GI50: > 100 µM (inactive)
HOP-62
  GI50: > 100 µM (inactive)
UACC-257
  GI50: > 100 µM (inactive)
MOLT-4
  GI50: > 100 µM (inactive)
NCI-H23
  GI50: > 100 µM (inactive)
SF-268
  GI50: > 100 µM (inactive)
SW-620
  GI50: > 100 µM (inactive)
MDA-MB-231
  GI50: > 100 µM (inactive)
COLO 205
  GI50: > 100 µM (inactive)
BT-549
  GI50: > 100 µM (inactive)
TK-10
  GI50: > 100 µM (inactive)
LOX IMVI
  GI50: > 100 µM (inactive)
U-251
  GI50: > 100 µM (inactive)
NCI/ADR-RES
  GI50: > 100 µM (inactive)
MDA-MB-435
  GI50: > 100 µM (inactive)
CAKI-1
  GI50: > 100 µM (inactive)
OVCAR-3
  GI50: > 100 µM (inactive)
HCT-116
  GI50: > 100 µM (inactive)
SK-OV-3
  GI50: > 100 µM (inactive)
NCI-H522
  GI50: > 100 µM (inactive)
IGROV-1
  GI50: 37 µM (inactive)
NCI-H460
  GI50: > 100 µM (inactive)
SNB-19
  GI50: > 100 µM (inactive)
Hs-578T
  GI50: > 100 µM (inactive)
Malme-3M
  GI50: > 100 µM (inactive)
T47D
  GI50: > 100 µM (inactive)
SK-MEL-28
  GI50: > 100 µM (inactive)
UACC-62
  GI50: > 100 µM (inactive)
SK-MEL-5
  GI50: > 100 µM (inactive)
SF-295
  GI50: > 100 µM (inactive)
ACHN
  GI50: > 100 µM (inactive)
SNB-75
  GI50: > 100 µM (inactive)
OVCAR-8
  GI50: > 100 µM (inactive)
HCT-15
  GI50: > 100 µM
HT-29
  GI50: > 100 µM (inactive)
UO-31
  GI50: > 100 µM (inactive)
SF-539
  GI50: > 100 µM (inactive)
A549
  GI50: > 100 µM (inactive)
HOP-92
  GI50: > 100 µM (inactive)
PC-3
  GI50: > 100 µM (inactive)
RPMI-8226
  GI50: 39.8 µM (inactive)
M14
  GI50: > 100 µM (inactive)

## CCc1nnc2sc(-c3ccc(-c4ccc(Cl)cc4Cl)o3)nn12
SK-MEL-2
  GI50: 58.7 µM (inactive)
SN12C
  GI50: 60.7 µM (inactive)
KM12
  GI50: > 100 µM (inactive)
CCRF-CEM
  GI50: 37.3 µM (inactive)
RXF 393
  GI50: 3.79 µM (inactive)
786-0
  GI50: 32.9 µM (inactive)
EKVX
  GI50: 54.8 µM (inactive)
HL-60
  GI50: 27 µM (inactive)
NCI-H226
  GI50: 50.6 µM (inactive)
MDA-N
  GI50: 66.5 µM (inactive)
K562
  GI50: 47.2 µM (inactive)
A498
  GI50: 30.3 µM (inactive)
DU-145
  GI50: 72.3 µM (inactive)
OVCAR-5
  GI50: > 100 µM (inactive)
OVCAR-4
  GI50: 84.7 µM (inactive)
HOP-62
  GI50: 61.9 µM (inactive)
UACC-257
  GI50: 43.9 µM (inactive)
MOLT-4
  GI50: 44.1 µM (inactive)
NCI-H23
  GI50: 76.4 µM (inactive)
SF-268
  GI50: 61.2 µM (inactive)
SW-620
  GI50: > 100 µM (inactive)
MDA-MB-231
  GI50: 35 µM (inactive)
COLO 205
  GI50: 23.1 µM (inactive)
BT-549
  GI50: 50 µM (inactive)
TK-10
  GI50: 43.7 µM (inactive)
LOX IMVI
  GI50: 74.1 µM (inactive)
U-251
  GI50: 37.3 µM (inactive)
NCI/ADR-RES
  GI50: 50.2 µM (inactive)
MDA-MB-435
  GI50: > 100 µM (inactive)
CAKI-1
  GI50: 96.6 µM (inactive)
OVCAR-3
  GI50: 40.6 µM (inactive)
HCT-116
  GI50: 62.5 µM (inactive)
SK-OV-3
  GI50: 43.1 µM (inactive)
NCI-H522
  GI50: 52.4 µM (inactive)
IGROV-1
  GI50: > 100 µM (inactive)
NCI-H460
  GI50: 67 µM (inactive)
SNB-19
  GI50: > 100 µM (inactive)
Hs-578T
  GI50: 74.8 µM (inactive)
Malme-3M
  GI50: > 100 µM (inactive)
T47D
  GI50: 18 µM (inactive)
SK-MEL-28
  GI50: > 100 µM (inactive)
SK-MEL-5
  GI50: 34.2 µM (inactive)
SF-295
  GI50: 43.1 µM (inactive)
ACHN
  GI50: 82 µM (inactive)
SR
  GI50: 40.3 µM (inactive)
SNB-75
  GI50: 21.3 µM (inactive)
OVCAR-8
  GI50: 71 µM (inactive)
HCT-15
  GI50: 61.7 µM
HT-29
  GI50: 96.2 µM (inactive)
UO-31
  GI50: 67.8 µM (inactive)
A549
  GI50: 73.5 µM (inactive)
HOP-92
  GI50: 21.4 µM (inactive)
PC-3
  GI50: 30.1 µM (inactive)
RPMI-8226
  GI50: 29.2 µM (inactive)
M14
  GI50: > 100 µM (inactive)

## C=C1C(=O)O[C@@H]2O[C@@]3(C)CC[C@H]4[C@H](C)CC[C@@H]1[C@@]24O3 [DEOXYARTEMISITENE]
SK-MEL-2
  GI50: 18.2 µM (inactive)
SN12C
  GI50: 19 µM (inactive)
KM12
  GI50: 4.19 µM (inactive)
CCRF-CEM
  GI50: 3.47 µM (inactive)
RXF 393
  GI50: 14.4 µM (inactive)
786-0
  GI50: 13.6 µM (inactive)
EKVX
  GI50: 13.3 µM (inactive)
HL-60
  GI50: 2.63 µM (inactive)
NCI-H226
  GI50: 40 µM (inactive)
MDA-N
  GI50: 13.7 µM (inactive)
K562
  GI50: 3.56 µM (inactive)
A498
  GI50: 34.6 µM (inactive)
DU-145
  GI50: 12.9 µM (inactive)
OVCAR-5
  GI50: 38.5 µM (inactive)
OVCAR-4
  GI50: 15.8 µM (inactive)
HOP-62
  GI50: 49.5 µM (inactive)
UACC-257
  GI50: 18.9 µM (inactive)
MOLT-4
  GI50: 9.08 µM (inactive)
NCI-H23
  GI50: 15.2 µM (inactive)
SF-268
  GI50: 28.1 µM (inactive)
SW-620
  GI50: 15.5 µM (inactive)
MDA-MB-231
  GI50: 25.9 µM (inactive)
COLO 205
  GI50: 11.9 µM (inactive)
BT-549
  GI50: 7.46 µM (inactive)
TK-10
  GI50: 15.9 µM (inactive)
LOX IMVI
  GI50: 16.1 µM (inactive)
U-251
  GI50: 43.4 µM (inactive)
MDA-MB-435
  GI50: 29.2 µM (inactive)
CAKI-1
  GI50: 15.7 µM (inactive)
OVCAR-3
  GI50: 22.2 µM (inactive)
MCF7
  GI50: 5.52 µM (inactive)
HCT-116
  GI50: 10.8 µM (inactive)
SK-OV-3
  GI50: 36.1 µM (inactive)
NCI-H522
  GI50: 6.58 µM (inactive)
IGROV-1
  GI50: 3.38 µM (inactive)
NCI-H460
  GI50: 22.3 µM (inactive)
SNB-19
  GI50: 47.2 µM (inactive)
Hs-578T
  GI50: 39 µM (inactive)
Malme-3M
  GI50: 14.2 µM (inactive)
T47D
  GI50: 13.6 µM (inactive)
SK-MEL-28
  GI50: 40.6 µM (inactive)
UACC-62
  GI50: 13 µM (inactive)
SK-MEL-5
  GI50: 19.1 µM (inactive)
SF-295
  GI50: 27.1 µM (inactive)
ACHN
  GI50: 11.3 µM (inactive)
SR
  GI50: 7.18 µM (inactive)
HCT-15
  GI50: 10.9 µM
HT-29
  GI50: 17.8 µM (inactive)
UO-31
  GI50: 19.3 µM (inactive)
HCC 2998
  GI50: 21.9 µM (inactive)
SF-539
  GI50: 11 µM (inactive)
A549
  GI50: 34.8 µM (inactive)
HOP-92
  GI50: 3.49 µM (inactive)
PC-3
  GI50: 19.5 µM (inactive)
RPMI-8226
  GI50: 6.37 µM (inactive)
M14
  GI50: 24.9 µM (inactive)
